What all share (assay): inhibition of tumour cell growth, NCI panel, 48 h
Assay [1] relates to 786-0 renal.
The subject of assay [2] is COLO 205 colon.
The subject of assay [3] is HCT-116 colon.
In assay [4] the test system is HOP-62 NSCLC.
The subject of assay [5] is MDA-MB-231 breast.
The test system of assay [6] is MDA-MB-435.
The subject of assay [7] is MOLT-4 leukemia.
Assay [8] relates to NCI-H460 lung.
Assay [9] concerns SNB-75 CNS.
Assay [10] deals with T-47D breast.

Where “and” joins values, the source holds several entries; their conditions need not be identical. Identical values can stand only once.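 Growth conditions: 96-well plates. Treatment: test compound, 48 hours, 5 concentrations. Analysis: linear interpolation between bracketing concentrations; unreached endpoints set to highest concentration. GI50 = concentration required for 50% inhibition of growth. TGI marks complete inhibition of growth.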 A value given as a limit tells only on which side of the number the result lay.

With `Cc1[nH]c2ncn(/N=C/c3ccccc3O)c(=N)c2c1Cc1ccccc1`, the TGI in [1] was greater than 100 µM; in [2], greater than 100 µM; in assay [3] it was greater than 100 µM; in [4], greater than 100 µM; in [5] it was greater than 100 µM; in assay [6] it was 48.8 µM. The TGI in assay [7], in assay [8], in assay [9] and in [10] was greater than 100 µM each time.
For `C1CC2=C(C1)[Se]C(=C1Sc3nsnc3S1)[Se]2`, the TGI in assay [1], in assay [2], in assay [3], in assay [4], in assay [5] and in assay [6] was greater than 100 µM each time. For the same compound, the TGI in assay [7], in assay [8], in assay [9] and in assay [10] was greater than 100 µM in each case.
Regarding `Nc1nc2c(=O)c3ccccc3sc2s1`, the TGI in assay [1], in [2], in assay [3], in assay [4], in assay [5] and in assay [6] was greater than 100 µM in each case. The TGI in [7], in assay [8], in [9] and in assay [10] was greater than 100 µM in each case.
With `C=CCNC(=S)Nc1sc2c(c1C(=O)OCC)CC(C)CC2` (centres undefined), the TGI in assay [1] was greater than 100 µM; in assay [2], 35.6 µM; in assay [3] it was 66.3 µM; in assay [4], 65.1 µM; in assay [5], 57 µM; in assay [6] it was greater than 100 µM. In addition, the TGI in [7] was found to be 80 µM; in [8] it was 47.7 µM; in assay [9], 64.7 µM; in assay [10], 66.7 µM.
With `O=c1[nH]c(=O)n(C2CC(O)C(CO)O2)cc1I` (centres undefined), the TGI in [1], in [2], in assay [3], in [4], in assay [5] and in assay [6] was greater than 100 µM throughout. The TGI in assay [7], in assay [8], in assay [9] and in assay [10] was greater than 100 µM in each case.
Take `O=C1c2ccccc2C2CNC1(O)c1ccccc12` (centres undefined): the TGI in assay [1], in assay [2], in assay [3], in assay [4], in assay [5] and in assay [6] was greater than 100 µM each time. The TGI in assay [7], in assay [8], in [9] and in assay [10] was greater than 100 µM each time.
Turning to `CC(C)(C)OC(=O)CN1CCNCCNCC1`, the TGI in assay [1], in assay [2], in [3], in assay [4], in [5] and in assay [6] was greater than 100 µM throughout. The TGI in [7], in assay [8], in assay [9] and in assay [10] was greater than 100 µM each time.
Consider `O=C(c1ccccc1)c1ccc2c(c1)nc1n2C(c2c(Cl)cccc2Cl)SC1` (centres undefined), for which the TGI in assay [1], in assay [2], in [3], in assay [4], in assay [5] and in assay [6] was greater than 100 µM throughout. The TGI in assay [7], in assay [8], in assay [9] and in assay [10] was greater than 100 µM in each case.
As for `CCOC(=O)c1cnc(-n2[nH]c(C)c(CCO)c2=O)[nH]c1=O`, the TGI in assay [1], in assay [2], in assay [3], in assay [4], in assay [5] and in [6] was greater than 100 µM each time. Also, the TGI in [7], in assay [8], in assay [9] and in assay [10] was greater than 100 µM throughout.
On to `Nc1nc(Cl)cc(NCC2(O)CC(CO)C2)n1` (centres undefined), for which the TGI in [1], in assay [2], in [3], in assay [4], in assay [5] and in assay [6] was greater than 100 µM each time. The TGI in [7], in [8], in assay [9] and in assay [10] was greater than 100 µM throughout.
On to `O=C1Oc2ccccc2C(=O)/C1=C/N1C(=O)N/C(=C\c2ccccc2O)C1=O`, for which the TGI in [1], in assay [2], in assay [3], in assay [4], in [5] and in [6] was greater than 100 µM in each case. Also, the TGI in [7] is greater than 100 µM; in assay [8], greater than 100 µM; in assay [9], greater than 100 µM; in [10] it was greater than 85.5 µM.
Turning to `C=C(C)[C@@]1(O)O[C@H]2C[C@@]3(C)OC(=CC3=O)/C(C)=C\[C@@H]3OC(=O)[C@@]1(C)[C@H]32`, the TGI was 26.7 µM in assay [1]; 35.3 µM in assay [2]; 20.6 µM in [3]; greater than 100 µM in assay [4]; 43.9 µM in [5]; greater than 100 µM in assay [6]. The TGI was 40.4 µM in assay [7], greater than 76.8 µM in [8], 68.3 µM in assay [9] and 59.2 µM in assay [10].
As for `c1ccc(CNC2CC(NCc3ccccn3)CC(NCc3ccccn3)C2)nc1` (centres undefined), the TGI in assay [1] is 9.95 µM and 5.87 µM and 6.09 µM; in assay [2], 4.02 µM and 4.61 µM and 3.21 µM; in assay [3], 5.27 µM and 7.2 µM and 3.68 µM; in assay [4] it was 20.8 µM and 20.4 µM and 23 µM; in [5], 5.21 µM and 12.5 µM and 4.56 µM; in assay [6], 9.45 µM and 8.78 µM and 15.5 µM. The TGI in assay [7] is 23.4 µM and 24.8 µM and 33.1 µM; in assay [8] it was 7.07 µM and 12 µM; in assay [9], 9.59 µM and 16 µM; in assay [10], 21.5 µM and 25 µM and 25.6 µM. For the same compound, the GI50 in [3] is 1.86 µM; in [5], 2.13 µM and 5.66 µM and 2.08 µM; in assay [6], 3.84 µM; in assay [10], 6.64 µM.

The values are drawn from PubChem BioAssay (NCI).
